Measurements: patent publication US20030013660A1, “Dioxolane analogs for improved inter-cellular delivery” (Shire BioChem Inc., priority 2000, published 2003)
Several values for one entry are separate records, joined by “and”; a condition that tells them apart may be missing. Equal values may be shown once. Read-outs that look alike come from different tables or passages of the source.

Columns and labels:
Assay in all cases: 3H-TdR incorporation at 72 hr (24 hr drug exposure, wash, 48 hr)
CCRF-CEM = format: cell-based; conditions: read-out: IC50 in μM (3H-TdR incorporation at 72 hr) CCRF-CEM 24 h, CCRF-CEM T-cell Leukemia, 72 hr assay
Experimental: (§1) Exposition of 24 hr to drug, wash, incubated for another 48 hr (total of 72 hr assay)
(§2) (3H-Thymidine Incorporation Assay)

CEM/dCK- = format: cell-based; conditions: for IC50: Homo sapiens, CCRF-CEM, read-out: IC50 in μM (3H-TdR incorporation at 72 hr) CEM/dCK- 24 h, CCRF-CEM deoxycytidine kinase-deficient, 24 h drug exposure, 72 hr assay
Experimental: as §1, §2

MCF-7 = format: cell-based, Human
Experimental: as §1, §2

H-460 = format: cell-based, Human
Experimental: as §1, §2

SF-268 = format: cell-based, Human; conditions: Homo sapiens, SF-268, read-out: IC50 in μM (3H-TdR incorporation at 72 hr) SF-268 24 h, SF-268 Human Central Nervous System Tumor; 24 h drug exposure, 72 hr assay
Experimental: as §1, §2

[1] = Homo sapiens, MCF7, read-out: IC50 in μM (3H-TdR incorporation at 72 hr) MCF-7 24 h, MCF-7 Human Breast Carcinoma, 72 hr assay
[2] = read-out: IC50 in μM (3H-TdR incorporation at 72 hr) MCF-7 24 h, MCF-7 Human Breast Carcinoma, 72 hr assay
[3] = Homo sapiens, NCI-H460, read-out: IC50 in μM (3H-TdR incorporation at 72 hr) H-460 24 h, H-460 Human Lung Carcinoma, 72 hr assay
[4] = read-out: IC50 in μM (3H-TdR incorporation at 72 hr) H-460 24 h, H-460 Human Lung Carcinoma, 72 hr assay

SMILES | IC50 (CCRF-CEM; Homo sapiens, CCRF-CEM) [µM] | IC50 (CCRF-CEM) | IC50 (CEM/dCK-) [µM] | IC50 (MCF-7; [1]) [µM] | IC50 (MCF-7; [2]) [µM] | IC50 (H-460; [3]) [µM] | IC50 (H-460; [4]) [µM] | IC50 (SF-268) [µM] | Factor* (Resistance Factor = Ratio of dCK- on Wild-type CCRF-CEM) (CEM/dCK-; ratio of IC50 CEM/dCK- to IC50 CCRF-CEM)
O=c1nc(NS(=O)(=O)c2ccc([N+](=O)[O-])cc2)ccn1[C@@H]1CO[C@H](CO)O1 [Compound 168, N-[1-(2-HYDROXYMETHYL- [1,3]DIOXOLAN-4-YL)-2- OXO-1,2-DIHYDRO- PYRIMIDIN-4-YL]-4- NITRO- BENZENESULFONAMIDE] | 31 | 22 µM and 20 µM | > 100 |  |  |  |  |  | 
O=c1nc(NCNc2ccccc2)ccn1[C@@H]1CO[C@H](CO)O1 [Compound 172, 1-(2-HYDROXYMETHYL- [1,3]DIOXOLAN-4-YL)-4- (PHENYLAMINOMETHYL- AMINO)-1H-PYRIMIDIN-2- ONE] | 0.0074 | 0.0085 µM |  | 0.019 | 0.036 | 0.014 | 0.015 |  | 
Nc1ccn([C@@H]2CO[C@H](COC(=O)c3ccc(Cl)c(Cl)c3)O2)c(=O)n1 [Compound 187, 3,4-DICHLORO-BENZOIC ACID 4-(4-AMINO-2-OXO- 2H-PYRIMIDIN-1-YL)- [1,3]DIOXOLAN-2-YL METHYL ESTER] |  | 0.0017 µM |  |  | 0.0042 |  | 0.0014 |  | 
Nc1ccn([C@@H]2CO[C@H](COC(=O)c3ccccc3-c3ccccc3)O2)c(=O)n1 [Compound 209, BIPHENYL-2-CARBOXYLIC ACID 4-(4-AMINO-2-OXO- 2#H!-PYRIMIDIN-1-YL)- [1,3]DIOXOLAN-2-YL METHYL ESTER] |  |  | > 100 | 1.3 |  | 0.31 |  | 0.59 | 
CC(C)(C)C(=O)Oc1ccc(COC(=O)Nc2ccn([C@@H]3CO[C@H](COC(=O)OCc4ccc(OC(=O)C(C)(C)C)cc4)O3)c(=O)n2)cc1 [Compound 212, 2,2-Dimethylpropionic Acid 4-(1-{2-[4-(2,2-dimethylpropionyloxy)benzyloxy Carbonyloxymethyl]-[1,3]dioxolan-4-yl}-2-oxo-1,2-dihydropyrimidin-4-ylcarbamoyloxymethyl)-phenyl Ester] |  |  | 3.5 | 0.00059 |  | 0.00011 |  | 0.018 | 
CC(C)(C)C(=O)Oc1ccc(COC(=O)Nc2ccn([C@@H]3CO[C@H](CO)O3)c(=O)n2)cc1 [Compound 213, 2,2-DIMETHYL-PROPIONIC ACID 4-[1-(2- HYDROXYMETHYL- [1,3]DIOXOLAN-4-YL)-2- OXO-1,2-DIHYDRO- PYRIMIDIN-4- YLCARBAMOYLOXYMETHYL]- PHENYL ESTER] |  |  | 1.1 | 0.00027 |  | ≤ 0.0001 |  | 0.012 | 
CC(C)(C)OC(=O)N(CCCCCCNC(=O)OC[C@H]1OC[C@@H](n2ccc(N)nc2=O)O1)Cc1ccccc1 [Compound 214, {6-[4-(4-AMINO-2-OXO- 2H-PYRIMIDIN-1-YL)- [1,3]DIOXOLAN-2- YLMETHOXYCARBONYLAMINO]-HEXYL}-BENZYL-CARBAMIC ACID TERT-BUTYL ESTER] |  |  | > 100 | 9.4 |  | 9.4 |  | 89 | 
Nc1ccn([C@@H]2CO[C@H](COC(=O)NCCCc3ccccc3)O2)c(=O)n1 [Compound 215, (3-PHENYL-PROPYL)- CARBAMIC ACID 4-(4- AMINO-2-OXO-2H- PYRIMIDIN-1-YL)- [1,3]DIOXOLAN-2-YL METHYL ESTER] |  |  | > 100 | 33 |  | 3.9 |  | 96 | 
CCCCC(CC)(CC)C(=O)OC[C@H]1OC[C@@H](n2ccc(N)nc2=O)O1 [Compound 218, 2,2-DIETHYL-HEXANOIC ACID 4-(4-AMINO-2-OXO- 2H-PYRIMIDIN-1-YL)- [1,3]DIOXOLAN-2-YL METHYL ESTER] |  |  | 60 | 0.052 |  | 0.0091 |  | 0.081 | 
O=C(Nc1ccn([C@@H]2CO[C@H](CO)O2)c(=O)n1)C1(c2ccccc2)CCCC1 [Compound 229, 1-PHENYL- CYCLOPENTANECARBOXYLIC ACID [1-(2- HYDROXYMETHYL- [1,3]DIOXOLAN-4-YL)-2- OXO-1,2-DIHYDRO- PYRIMIDIN-4-YL]-AMIDE] | 11 |  | > 100 | 15 | 18 | 13 | 14 |  | >9
